# From patent publication US20250066370A1, “BICYCLIC TRIAZINE DERIVATIVES FOR THE TREATMENT OF CANCER” (DEUTSCHES KREBSFORSCHUNGSZENTRUM, priority 2022, published 2025)
# System: HCC1954
# Experiment: Proliferation assay: cell line panel, HCC1954
# Assay type: cell-based
# Conditions: Homo sapiens, 96 h, breast cancer, HER2 positive, 4 days, read-out: Result Category, IC50 (mean)
# From the text: Human tumour cells were originally obtained from the American Type Culture Collection (ATCC), from Cell Line Services GmbH (CLS), from the Deutsche Sammlung von Mikroorganismen und Zellkulturen (DSMZ, German Collection of Microorganisms and Cell Cultures), from the Japanese Cancer Research Resources Bank (JCRB), from Public Health England, from the European Collection of Authenticated Cell Cultures (ECACC), from Asterand Biosciences, or from the National Cancer Institute (NCI). Cultivated tumour cells were plated at the density as indicated in Table 6 in 96-well multitier plates in 200 microL of their respective growth medium supplemented 10% fetal calf serum. […] Cell proliferation was determined by staining the cells with crystal violet: the cells were fixed by adding 20 microL/measuring point of an 11% glutaric aldehyde solution for 15 minutes at room temperature. […] The extinction was determined by photometry at a wavelength of 595 nm. The change of cell number, in percent, was calculated by normalization of the measured values to the extinction values of the zero-point plate (=0%) and the extinction of the untreated (0 μM) cells (=100%). […]
row,IC50,SMILES
1,30 to 100 nM,"FC(F)(F)c1ccc(-c2cnc(CNc3nc(N4CCOCC4)nn4c(C(F)(F)F)cnc34)[nH]2)cc1 [Example 7, 2-(morpholin-4-yl)-7-(trifluoromethyl)-N-({5-[4-(trifluoromethyl)phenyl]-1H-imidazol-2-yl}methyl)imidazo[2,1-f][1,2,4]triazin-4-amine]"
2,30 to 100 nM,"FC(F)(F)Oc1ccc(-c2cnc(CNc3nc(N4CCOCC4)nn4c(C(F)(F)F)cnc34)[nH]2)cc1 [Example 8, 2-(morpholin-4-yl)-N-({5-[4-(trifluoromethoxy)phenyl]-1H-imidazol-2-yl}methyl)-7-(trifluoromethyl)imidazo[2,1-f][1,2,4]triazin-4-amine]"
